Data published in PubChem BioAssay (NCI).
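Abbreviation: GI50, concentration required for 50% inhibition of growth. TGI is the concentration that stops growth completely.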

Legend:
Experiment in all cases: NCI-60 cell line screen, 384-well format
IGROV1 ovarian = tested on: IGROV1 ovarian
DU-145 prostate = tested on: DU-145 prostate
UO-31 renal = tested on: UO-31 renal
SK-MEL-28 melanoma = tested on: SK-MEL-28 melanoma
NCI-H226 lung = tested on: NCI-H226 lung
MALME-3M melanoma = tested on: MALME-3M melanoma
BT-549 breast = tested on: BT-549 breast
CAKI-1 renal = tested on: CAKI-1 renal
HL-60(TB) leukemia = tested on: HL-60(TB) leukemia
SK-OV-3 ovarian = tested on: SK-OV-3 ovarian
SR leukemia = tested on: SR leukemia
SNB-19 CNS = tested on: SNB-19 CNS
KM12 colon = tested on: KM12 colon
M14 melanoma = tested on: M14 melanoma
OVCAR-3 ovarian = tested on: OVCAR-3 ovarian
NCI-H322M lung = tested on: NCI-H322M lung
SN12C renal = tested on: SN12C renal
HCC-2998 colon = tested on: HCC-2998 colon
UACC-257 melanoma = tested on: UACC-257 melanoma
HCT-15 colon = tested on: HCT-15 colon
HOP-62 NSCLC = tested on: HOP-62 NSCLC
SK-MEL-2 melanoma = tested on: SK-MEL-2 melanoma
T-47D breast = tested on: T-47D breast
SF-539 CNS = tested on: SF-539 CNS
A498 renal = tested on: A498 renal
CCRF-CEM leukemia = tested on: CCRF-CEM leukemia
MDA-MB-231 breast = tested on: MDA-MB-231 breast
MCF7 breast = tested on: MCF7 breast
MOLT-4 leukemia = tested on: MOLT-4 leukemia
HCT-116 colon = tested on: HCT-116 colon
LOX IMVI melanoma = tested on: LOX IMVI melanoma
MDA-MB-468 breast = tested on: MDA-MB-468 breast
U251 glioblastoma = tested on: U251 glioblastoma
COLO 205 colon = tested on: COLO 205 colon
SF-295 CNS = tested on: SF-295 CNS
TK-10 renal = tested on: TK-10 renal
RPMI-8226 leukemia = tested on: RPMI-8226 leukemia
RXF 393 renal = tested on: RXF 393 renal
A549 NSCLC = tested on: A549 NSCLC
NCI-H522 lung = tested on: NCI-H522 lung
HOP-92 NSCLC = tested on: HOP-92 NSCLC
ACHN renal = tested on: ACHN renal
NCI-H23 lung = tested on: NCI-H23 lung
SF-268 CNS = tested on: SF-268 CNS
PC-3 prostate = tested on: PC-3 prostate
SK-MEL-5 melanoma = tested on: SK-MEL-5 melanoma
NCI-H460 NSCLC = tested on: NCI-H460 NSCLC
NCI/ADR-RES ovarian = tested on: NCI/ADR-RES ovarian
K-562 leukemia = tested on: K-562 leukemia
SW-620 colon = tested on: SW-620 colon
OVCAR-4 ovarian = tested on: OVCAR-4 ovarian
786-0 renal = tested on: 786-0 renal
OVCAR-8 ovarian = tested on: OVCAR-8 ovarian
UACC-62 melanoma = tested on: UACC-62 melanoma
MDA-MB-435 melanoma = tested on: MDA-MB-435 melanoma
HT29 colon = tested on: HT29 colon
OVCAR-5 ovarian = tested on: OVCAR-5 ovarian

**Q.** Which results are given for COc1cc2c(Oc3ccc(-c4cnc(Nc5ccc(F)cc5)n(C)c4=O)cc3F)ccnc2cc1OCCCN1CCOCC1?
**A.** GI50 (IGROV1 ovarian): 368 nM; TGI (IGROV1 ovarian): 1470 nM; GI50 (DU-145 prostate): 1470 nM; TGI (DU-145 prostate): 2800 nM; GI50 (UO-31 renal): 409 nM; TGI (UO-31 renal): 1430 nM; GI50 (SK-MEL-28 melanoma): 258 nM; TGI (SK-MEL-28 melanoma): 923 nM; GI50 (NCI-H226 lung): 476 nM; TGI (NCI-H226 lung): 1570 nM; GI50 (MALME-3M melanoma): 140 nM; TGI (MALME-3M melanoma): 453 nM; GI50 (BT-549 breast): 684 nM; TGI (BT-549 breast): 1870 nM; GI50 (CAKI-1 renal): 368 nM; TGI (CAKI-1 renal): 1410 nM; GI50 (HL-60(TB) leukemia): 268 nM; TGI (HL-60(TB) leukemia): 1130 nM; GI50 (SK-OV-3 ovarian): 680 nM; TGI (SK-OV-3 ovarian): 1990 nM; GI50 (SR leukemia): 513 nM; TGI (SR leukemia): 1680 nM; GI50 (SNB-19 CNS): 1260 nM; TGI (SNB-19 CNS): 2520 nM; TGI (KM12 colon): 308 nM; GI50 (M14 melanoma): 248 nM; TGI (M14 melanoma): 814 nM; GI50 (OVCAR-3 ovarian): 804 nM; TGI (OVCAR-3 ovarian): 2040 nM; GI50 (NCI-H322M lung): 761 nM; TGI (NCI-H322M lung): 2020 nM; GI50 (SN12C renal): 247 nM; TGI (SN12C renal): 1290 nM; GI50 (HCC-2998 colon): 1170 nM; TGI (HCC-2998 colon): 2400 nM; GI50 (UACC-257 melanoma): 252 nM; TGI (UACC-257 melanoma): 1090 nM; GI50 (HCT-15 colon): 792 nM; TGI (HCT-15 colon): 2030 nM; GI50 (HOP-62 NSCLC): 1310 nM; TGI (HOP-62 NSCLC): 2590 nM; GI50 (SK-MEL-2 melanoma): 495 nM; TGI (SK-MEL-2 melanoma): 1510 nM; GI50 (T-47D breast): 1070 nM; TGI (T-47D breast): 2260 nM; GI50 (SF-539 CNS): 257 nM; TGI (SF-539 CNS): 1150 nM; GI50 (A498 renal): 1240 nM; TGI (A498 renal): 2500 nM; GI50 (CCRF-CEM leukemia): 1070 nM; TGI (CCRF-CEM leukemia): 2260 nM; GI50 (MDA-MB-231 breast): 748 nM; TGI (MDA-MB-231 breast): 2030 nM; GI50 (MCF7 breast): 441 nM; TGI (MCF7 breast): 1620 nM; GI50 (MOLT-4 leukemia): 150 nM; TGI (MOLT-4 leukemia): 369 nM; GI50 (HCT-116 colon): 704 nM; TGI (HCT-116 colon): 2000 nM; GI50 (LOX IMVI melanoma): 402 nM; TGI (LOX IMVI melanoma): 1450 nM; GI50 (MDA-MB-468 breast): 1540 nM; TGI (MDA-MB-468 breast): 2870 nM; GI50 (U251 glioblastoma): 1140 nM; TGI (U251 glioblastoma): 2360 nM; GI50 (COLO 205 colon): 227 nM; TGI (COLO 205 colon): 761 nM; GI50 (SF-295 CNS): 439 nM; TGI (SF-295 CNS): 1640 nM; GI50 (TK-10 renal): 1160 nM; TGI (TK-10 renal): 2400 nM; GI50 (RPMI-8226 leukemia): 545 nM; TGI (RPMI-8226 leukemia): 1740 nM; GI50 (RXF 393 renal): 189 nM; TGI (RXF 393 renal): 541 nM; GI50 (A549 NSCLC): 572 nM; TGI (A549 NSCLC): 1800 nM; GI50 (NCI-H522 lung): 1040 nM; TGI (NCI-H522 lung): 2210 nM; GI50 (HOP-92 NSCLC): 76.4 nM; TGI (HOP-92 NSCLC): 452 nM; GI50 (ACHN renal): 313 nM; TGI (ACHN renal): 1460 nM; GI50 (NCI-H23 lung): 237 nM; TGI (NCI-H23 lung): 1350 nM; GI50 (SF-268 CNS): 1160 nM; TGI (SF-268 CNS): 2390 nM; GI50 (PC-3 prostate): 1520 nM; TGI (PC-3 prostate): 2860 nM; GI50 (SK-MEL-5 melanoma): 329 nM; TGI (SK-MEL-5 melanoma): 1500 nM; GI50 (NCI-H460 NSCLC): 526 nM; TGI (NCI-H460 NSCLC): 1790 nM; GI50 (NCI/ADR-RES ovarian): 1180 nM; TGI (NCI/ADR-RES ovarian): 2410 nM; GI50 (K-562 leukemia): 10.7 nM; TGI (K-562 leukemia): 23.4 nM; GI50 (SW-620 colon): 509 nM; TGI (SW-620 colon): 1880 nM; GI50 (OVCAR-4 ovarian): 1110 nM; TGI (OVCAR-4 ovarian): 2320 nM; GI50 ([…]-0 renal): 1240 nM; TGI (786-0 renal): 2490 nM; GI50 (OVCAR-8 ovarian): 1310 nM; TGI (OVCAR-8 ovarian): 2590 nM; GI50 (UACC-62 melanoma): 288 nM; TGI (UACC-62 melanoma): 1250 nM; GI50 (MDA-MB-435 melanoma): 384 nM; TGI (MDA-MB-435 melanoma): 1390 nM; GI50 (HT29 colon): 275 nM; TGI (HT29 colon): 1200 nM; GI50 (OVCAR-5 ovarian): 811 nM; TGI (OVCAR-5 ovarian): 2050 nM
